US20060264419A1 (priority 2003, published 2006)

biological target: 5-HT2A receptors (Rattus norvegicus, UniProt P14842); test: in-vitro affinity to 5-HT2A receptors, displacement of [3H]ketanserine (Example A1); assay type: binding; details: read-out: HT2A IC50
From the text: The 5-HT2A receptors are exposed both to [^3H]ketanserine (a substance which is known for its affinity to the receptor) and also to the test compound. The decrease in the affinity of [^3H]ketanserine to the receptor is an indication of the affinity of the test substance to the 5-HT2A receptor.

5-HT2A receptors, sequence (P14842 whole entry): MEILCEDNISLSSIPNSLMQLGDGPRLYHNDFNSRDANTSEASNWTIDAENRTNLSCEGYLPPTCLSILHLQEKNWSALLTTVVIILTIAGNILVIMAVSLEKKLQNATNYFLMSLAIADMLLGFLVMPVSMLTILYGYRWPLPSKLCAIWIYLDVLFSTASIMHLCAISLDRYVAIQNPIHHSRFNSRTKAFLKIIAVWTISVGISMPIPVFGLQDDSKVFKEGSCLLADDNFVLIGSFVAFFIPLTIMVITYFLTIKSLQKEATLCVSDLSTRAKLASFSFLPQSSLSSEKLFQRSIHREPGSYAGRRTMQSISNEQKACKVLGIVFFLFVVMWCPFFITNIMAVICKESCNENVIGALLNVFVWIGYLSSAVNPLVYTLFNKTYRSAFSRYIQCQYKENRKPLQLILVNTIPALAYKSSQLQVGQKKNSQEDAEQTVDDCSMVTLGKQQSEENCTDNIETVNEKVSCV

IC50 [nM] | Structure (SMILES)
170 | CN1CCN(Cc2cnn(-c3ccc(-c4cccnc4)cc3)c2-c2ccccc2F)CC1 [Example 1000, 1-[5-(2-Fluorophenyl)-1-(4-pyridin-3-ylphenyl)-1H-pyrazol-4-ylmethyl]-4-methylpiperazine]
57 | CCc1ccc(-c2ccc(-n3ncc(CN4CCN(C)CC4)c3-c3ccccc3F)cc2)cc1 [Example 956, 1-[1-(4′-Ethylbiphenyl-4-yl)-5-(2-fluorophenyl)-1H-pyrazol-4-ylmethyl]-4-methylpiperazine]
66 | Fc1ccccc1-c1c(CN2CCC(Cc3cccnc3)CC2)cnn1-c1ccc(-c2ccccc2)cc1 [Example 962, 3-{1-[1-Biphenyl-4-yl-5-(2-fluoro-phenyl)-1H-pyrazol-4-ylmethyl}piperidin-4-ylmethyl]pyridine]
170 | Fc1ccccc1-c1c(CN2CC=CCC2)cnn1-c1ccc(-c2ccccc2)cc1 [Example 998, 1-[1-Biphenyl-4-yl-5-(2-fluorophenyl)-1H-pyrazol-4-ylmethyl]-1,2,3,6-tetrahydro-pyridine]
130 | N#CC(NCc1cnn(-c2ccc(-c3ccccc3)cc2)c1-c1ccccc1F)C(N)=O (stereo not drawn) [Example 987, 2-{[1-Biphenyl-4-yl-5-(2-fluorophenyl)-1H-pyrazol-4-ylmethyl]amino}-2-cyanoacetamide]
100 | Cc1nn(-c2ccccc2)c(C)c1CN1CCN(C(=O)CC(C)C(=O)O)CC1 (stereo not drawn) [Example 978]
370 | OCC(Cc1cnc[nH]1)NCc1cnn(-c2ccc(-c3ccccc3)cc2)c1-c1ccccc1F (stereo not drawn) [Example 1045, 2-{[1-Biphenyl-4-yl-5-(2-fluoro-phenyl)-1H-pyrazol-4-ylmethyl]amino}-3-(3H-imidazol-4-yl)propan-1-ol]
160 | CN1CCC(N(C)Cc2cnn(-c3ccc(-c4ccccc4)cc3)c2-c2ccccc2F)CC1 [Example 995, [1-Biphenyl-4-yl-5-(2-fluorophenyl)-1H-pyrazol-4-ylmethyl]methyl-(1-methylpiperidin-4-yl)amine]
470 | OCCc1cnn(-c2ccc(-c3ccccc3)cc2)c1-c1ccccc1F [Example 1059, 2-[1-Biphenyl-4-yl-5-(2-fluoro-phenyl)-1H-pyrazol-4-yl]ethanol]

same assay, conditions: target not given; description names affinity to 5-HT2A receptors; read-out: IC50

IC50 [nM] | Structure (SMILES)
940 | CCOC(=O)CNCc1cnn(-c2ccc(-c3ccccc3)cc2)c1-c1cccnc1 [(117), Ethyl [(1-biphenyl-4-yl-5-pyridin-3-yl-1H-pyrazol-4-ylmethyl)-amino]acetate]
600 | CNC(=O)CNCc1cnn(-c2ccc(-c3ccccc3)cc2)c1-c1ccccc1F [(130), 2-{[1-Biphenyl-4-yl-5-(2-fluorophenyl)-1H-pyrazol-4-ylmethyl]-amino}-N-methylacetamide]
730 | NC(=O)CNCc1cnn(-c2ccc(-c3ccccc3)cc2)c1-c1ccccc1F [(118), 2-{[1-Biphenyl-4-yl-5-(2-fluorophenyl)-1H-pyrazol-4-ylmethyl]-amino}acetamide]
25 | CN1CCN(Cc2cnn(-c3ccc(-c4ccccc4F)cc3)c2-c2ccco2)CC1 [(103), 1-[1-(2′-Fluorobiphenyl-4-yl)-5-furan-2-yl-1H-pyrazol-4-ylmethyl]-4-methylpiperazine]
560 | Fc1ccccc1-c1c(CN2CCC(N3CCOCC3)CC2)cnn1-c1ccc(-c2ccccc2)cc1 [(25), 4-{1-[1-Biphenyl-4-yl-5-(2-fluorophenyl)-1H-pyrazol-4-ylmethyl]piperidin-4-yl}morpholine]
890 | Fc1ccc(-c2ccc(-n3ncc(CNc4cccnc4)c3-c3ccccc3F)cn2)cc1 [(144), {5-(2-Fluorophenyl)-1-[6-(4-fluorophenyl)pyridin-3-yl]-1H-pyrazol-4-ylmethyl}pyridin-3-ylamine]
440 | CN(C)CCN(C)Cc1cnn(-c2ccc(-c3ccccc3)nc2)c1-c1ccccc1F [(127), N-[5-(2-Fluorophenyl)-1-(6-phenylpyridin-3-yl)-1H-pyrazol-4-ylmethyl]-N,N′,N′-trimethylethane-1,2-diamine]
280 | N#CCNCc1cnn(-c2ccc(-c3ccccc3)cc2)c1-c1ccccc1F [(124), {[1-Biphenyl-4-yl-5-(2-fluorophenyl)-1H-pyrazol-4-ylmethyl]-amino}acetonitrile]
790 | O=C(Nc1ccccc1)N1CCN(Cc2cnn(-c3ccc(-c4ccccc4)cc3)c2-c2ccccc2F)CC1 [(126), N-Phenyl-4-[1-biphenyl-4-yl-5-(2-fluorophenyl)-1H-pyrazol-4-ylmethyl]piperazine-1-carboxamide]
270 | O=C(NCCO)C1CCN(Cc2cnn(-c3ccc(-c4ccccc4)cc3)c2-c2ccccc2F)CC1 [(164), N-(2-Hydroxyethyl)-1-[1-biphenyl-4-yl-5-(2-fluorophenyl)-1H-pyrazol-4-ylmethyl]piperidine-4-carboxamide]
360 | NC(=O)CN1CCN(Cc2cnn(-c3ccc(-c4ccccc4)cc3)c2-c2ccccc2F)CC1 [(111), 2-{4-[1-Biphenyl-4-yl-5-(2-fluorophenyl)-1H-pyrazol-4-ylmethyl]piperazin-1-yl}acetamide]

Structure (SMILES) | IC50 [nM]
Fc1ccccc1-c1c(CNCc2nc3ccccc3[nH]2)cnn1-c1ccc(-c2ccccc2)cc1 [(133), (1H-Benzoimidazol-2-ylmethyl)-[1-biphenyl-4-yl-5-(2-fluorophenyl)-1H-pyrazol-4-ylmethyl]amine] | 76
CN1CCN(Cc2cnn(-c3ccc(-c4ccccc4)cc3)c2-c2ccccc2F)CC1 [(41), 1-[1-Biphenyl-4-yl-5-(2-fluorophenyl)-1H-pyrazol-4-ylmethyl]-4-methylpiperazine] | 24
CN1CCN(Cc2cnn(-c3ccc(-c4cc(F)ccc4F)cc3)c2-c2ccco2)CC1 [(69), 1-[1-(2′,5′-Difluorobiphenyl-4-yl)-5-furan-2-yl-1H-pyrazol-4-ylmethyl]-4-methylpiperazine] | 36
CC(=O)NC1CCN(Cc2cnn(-c3ccc(-c4ccccc4)cc3)c2-c2ccccc2F)C1 (stereo not drawn) [(50), N-{1-[1-Biphenyl-4-yl-5-(2-fluorophenyl)-1H-pyrazol-4-ylmethyl]pyrrolidin-3-yl}acetamide] | 29
CN1CCN(Cc2cnn(-c3ccc(-c4ccccc4)cc3)c2-c2ccccn2)CC1 [(58), 1-(1-Biphenyl-4-yl-5-pyridin-2-yl-1H-pyrazol-4-ylmethyl)-4-methylpiperazine] | 50
c1ccc(-c2ccc(-n3ncc(CNCc4ccncc4)c3-c3ccccc3)cc2)cc1 [(170), (1-Biphenyl-4-yl-5-phenyl-1H-pyrazol-4-ylmethyl)pyridin-4-ylmethylamine] | 31
CN1CCN(Cc2cnn(-c3ccc(-c4ccccc4)cc3)c2-c2cccnc2)CC1 [(113), 1-(1-Biphenyl-4-yl-5-pyridin-3-yl-1H-pyrazol-4-ylmethyl)-4-methylpiperazine] | 290
CN1CCN(Cc2cnn(-c3ccc(-c4cc(F)ccc4F)cc3)c2-c2ccc(F)cc2)CC1 [(101), 1-[1-(2′,5′-Difluorobiphenyl-4-yl)-5-(4-fluorophenyl)-1H-pyrazol-4-ylmethyl]-4-methylpiperazine] | 240
Cn1ccnc1CNCc1cnn(-c2ccc(-c3ccccc3)cc2)c1-c1ccccc1 [(169), (1-Biphenyl-4-yl-5-phenyl-1H-pyrazol-4-ylmethyl)-(1-methyl-1H-imidazol-2-ylmethyl)amine] | 39
CN1CCN(Cc2cnn(-c3ccc(-c4ccsc4)cc3)c2-c2ccccc2F)CC1 [(66), 1-[5-(2-Fluorophenyl)-1-(4-thiophen-3-ylphenyl)-1H-pyrazol-4-ylmethyl]-4-methylpiperazine] | 14
